Data taken from patent US20090203716A1, “Pyrimidine low molecular weight ligands for modulating hormone receptors” (The Government of the United States of America as …, priority 2006, published 2009).
“Also recorded” adds a separate entry of the source.

What was measured:
TSHR [1] = biological target: T1, TSHR (Homo sapiens, UniProt P16473); experiment: TsAb (Graves' disease sera)-stimulated cAMP accumulation in HEK-EM 293 cells expressing TSHR; format: cell-based; design: expressed in transfected cells
T1 sequence (P16473 21-764): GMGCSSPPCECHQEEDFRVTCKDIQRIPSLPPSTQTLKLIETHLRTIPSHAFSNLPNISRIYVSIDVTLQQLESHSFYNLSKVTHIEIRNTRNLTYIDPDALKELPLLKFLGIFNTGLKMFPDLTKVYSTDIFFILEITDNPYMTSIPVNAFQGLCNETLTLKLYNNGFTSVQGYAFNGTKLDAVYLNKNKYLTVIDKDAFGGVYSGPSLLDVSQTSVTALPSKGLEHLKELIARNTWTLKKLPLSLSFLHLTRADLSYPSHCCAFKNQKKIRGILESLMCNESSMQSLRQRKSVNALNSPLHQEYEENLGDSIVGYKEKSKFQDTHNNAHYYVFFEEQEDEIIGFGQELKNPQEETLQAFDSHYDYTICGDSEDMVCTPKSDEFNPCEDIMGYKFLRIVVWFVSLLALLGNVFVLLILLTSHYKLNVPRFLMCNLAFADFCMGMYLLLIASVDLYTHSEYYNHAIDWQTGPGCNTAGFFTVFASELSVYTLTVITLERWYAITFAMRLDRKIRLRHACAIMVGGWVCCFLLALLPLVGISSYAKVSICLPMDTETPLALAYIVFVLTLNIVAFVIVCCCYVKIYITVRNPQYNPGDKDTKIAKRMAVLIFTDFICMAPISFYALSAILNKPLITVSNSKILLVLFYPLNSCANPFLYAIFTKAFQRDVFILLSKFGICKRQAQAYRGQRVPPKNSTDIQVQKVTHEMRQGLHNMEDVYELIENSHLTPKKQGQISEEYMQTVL
Description: (§1) Transiently transfected cells were cultured for 48 hours before the cAMP assay. HEK-EM 293 cells stably expressing TSHR, LHCGR or FSHR were seeded into 24-well plates with a density of 2.2×10^5 cells/well 24 hours before the cAMP assay. After removal of growth medium, cells were incubated for 1 hour in HBSS (Cellgro) with 10 mM HEPES (Cellgro) containing 1 mM 3-isobutyl-1-methylxanthine (IBMX) (Sigma) and the ligand of interest in a humidified 5% CO2 incubator at 37° C. The intracellular cAMP content was determined with the cAMP Biotrak Enzymeimmunoassay (EIA) System (GE Healthcare). Data were analyzed using GraphPad Prism 4 for Windows. Receptor expression was measured as described in Jaschke et al., J Biol Chem 281:9841-9844.
To assess the therapeutic potential of compound 52 in patients with Graves' disease, its ability to inhibit TSHR activation by TsAbs was tested. First, four patient sera (GD 5, 19, 29, 30) were used at a dilution of 1:50 to test the effect of compound 52 on TsAb-stimulated cAMP accumulation in HEK-EM 293 cells expressing TSHR. All four sera increased cAMP accumulation, but to different extents (FIG. 6). To assess inhibition, cAMP accumulation was measured in response to TsAbs in the presence of 30 μM compound 52. Indeed, compound 52 reduced TsAb-mediated responses of the different sera (set at 100% for each patient's serum) by 28% to 79% (FIG. 6).

TSHR [2] = biological target: T1, TSHR; experiment: inhibition of TSH-mediated cAMP response in HEK-EM 293 cells stably expressing TSHR; format: cell-based; design: expressed in transfected cells
Description: as §1
The TSH-mediated cAMP response of TSHR was inhibited by a maximum of 70.8±5.5% at 30 μM compound 52. […] Compound 52 has no activity at FSHR.
To exclude the possibility that compound 52 might be acting independently of TSHR by building aggregates with TSH, thereby inhibiting the TSH-induced response, tests were conducted for a possible aggregation between these two ligands. Compound 52 and TSH were preincubated for up to 15 minutes before addition to HEK-EM 293 cells stably expressing TSHR. […] There was no difference in the antagonistic effect whether TSH and compound 52 were preincubated together or not (data not shown) thereby excluding the possibility that its effect was caused by aggregation with TSH.

solubility = format: physicochemical; conditions: compared to compound 52
TSHR mutant M9 = experiment: cAMP production in HEK-EM 293 cells transiently expressing TSHR mutant M9; format: cell-based, human
Description: HEK-EM 293 cells were grown in Dulbecco's modified Eagle's Medium (DMEM) supplemented with 10% fetal bovine serum, 100 units/ml penicillin and 10 μg/ml streptomycin (Life Technologies Inc.) at 37° C. in a humidified 5% CO2 incubator. Cells were transiently transfected with wild type TSHR and mutant receptors in 24-well plates (7.5×10^4 cells per well) with 0.4 μg DNA/well using FuGENE™ 6 reagent (Roche) according to the manufacturer's protocol.
The M9 mutant is described in Jaschke et al., J Biol Chem 281:9841-9844. The Y7.42A mutant was introduced into hTSHR-pcDNA3.1 via the QuickChange XL Site-Directed Mutagenesis kit (Stratagene). The construct was verified by sequencing (MWG Biotech).
as §1, with “After removal of growth medium, cells were incubated for 1 hour in HBSS (Cellgro) with 10 mM HEPES (Cellgro) containing 1 mM 3-isobutyl-1-methylxanthine (IBMX) (Sigma) and the ligand of interest in a humidified 5% CO2 incubator at 37° C.” left out

human TSH receptor = biological target: T2, human TSH receptor (Homo sapiens, UniProt P16473); experiment: intracellular cAMP accumulation, agonism at TSHR stably expressed in HEK EM 293 cells; format: cell-based; conditions: for % Max. Resp. @ TSHR in μM: % of maximum response of TSHR to TSH (100 mU/ml), * estimated maximum response at 100 μM compound
T2 construct: expressed in transfected cells
T2 sequence (P16473 21-764): as above
Description: With reference to Table 1, exemplary disclosed compounds were evaluated against human TSH receptor and human LHCG receptor that were stably expressed in HEK 293 EM cells as previously described by Libert et al. (Biochem. Biophys. Res. Commun. 1989, 165, 1250-1255); and by Schulz et al. (Mol. Endocrinol. 1999, 13, 181-190). Cell surface expression of TSH receptor and LHCG receptor were determined via FACS analysis (Kleinau, G.; Jäschke, H.; Neumann, S.; Lättig, S.; Paschke, R.; Krause, G. J. Biol. Chem. 2004, 279, 51590-51600). Agonism of compounds 3-20 were determined via measurement of intracellular cyclic AMP accumulation. […] For example, […] certain compounds disclosed herein exerted no discernible effect on the FSH receptor.
Cells were cultured for 48 h in 24-well plates before incubation for 1 h in serum-free DMEM containing 1 mM 3-isobutyl-1-methylxanthine (IBMX) (SIGMA) and bovine TSH (1.8 μM) (SIGMA) or human LH (1000 ng/ml) (Dr. A. Parlow, NIDDK National Hormone and Pituitary Program) or compounds 3-19 (0-100 μM) in a humidified 5% CO2 incubator. Following aspiration of the medium after incubation with compounds, cells were lysed using lysis buffer 1 of the cAMP Biotrak Enzymeimmunoassay (EIA) System (Amersham Biosciences). The cAMP content of the cell lysate was determined using the manufacturer's protocol. The efficacy of receptor activation by small molecule modulators is expressed as % of maximum response of LHCG receptor or TSH receptor to LH or TSH, respectively. The potency (EC50) was obtained from dose response curves (0-100 μM compound) by data analysis with GraphPad Prism 4 for Windows. With reference to FIG. 1, intracellular cAMP production was determined in response to 100 μM of each compound and is expressed as % of maximum response of TSHR/LHCGR to TSH (100 mU/ml)/LH (1000 ng/ml). The data are presented as mean±SEM of two independent experiments, each performed in duplicate.
as §1

LHCG receptor = LHCG receptor (Mus musculus, UniProt P30730); conditions: ovulation induction model; cited from earlier work
Sequence of LHCG receptor (P30730 27-700): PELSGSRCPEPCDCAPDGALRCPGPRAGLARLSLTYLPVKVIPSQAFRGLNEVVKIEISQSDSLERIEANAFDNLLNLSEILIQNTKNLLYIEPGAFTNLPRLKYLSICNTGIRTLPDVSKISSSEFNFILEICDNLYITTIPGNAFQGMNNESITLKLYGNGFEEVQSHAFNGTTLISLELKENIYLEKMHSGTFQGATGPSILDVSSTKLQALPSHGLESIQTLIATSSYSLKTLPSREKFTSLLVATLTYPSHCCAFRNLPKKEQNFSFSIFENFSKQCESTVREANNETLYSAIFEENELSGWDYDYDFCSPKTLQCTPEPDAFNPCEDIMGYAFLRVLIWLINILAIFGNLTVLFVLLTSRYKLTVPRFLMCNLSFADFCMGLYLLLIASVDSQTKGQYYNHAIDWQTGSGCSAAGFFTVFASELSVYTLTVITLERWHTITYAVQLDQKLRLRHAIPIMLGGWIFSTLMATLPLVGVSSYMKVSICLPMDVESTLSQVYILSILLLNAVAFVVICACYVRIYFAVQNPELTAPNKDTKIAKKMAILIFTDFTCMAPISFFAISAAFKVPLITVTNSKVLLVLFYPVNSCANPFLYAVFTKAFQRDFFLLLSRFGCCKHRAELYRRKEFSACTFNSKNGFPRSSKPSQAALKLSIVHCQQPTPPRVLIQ

human LHCG receptor = biological target: T3, human LHCG receptor (Homo sapiens, UniProt P22888); experiment: intracellular cAMP accumulation, agonism at LHCGR stably expressed in HEK EM 293 cells; format: cell-based; conditions: for % Max. Resp. @ LHCGR in μM: % of maximum response of LHCGR to LH (1000 ng/ml)
T3 construct: expressed in transfected cells
T3 sequence (P22888 27-699): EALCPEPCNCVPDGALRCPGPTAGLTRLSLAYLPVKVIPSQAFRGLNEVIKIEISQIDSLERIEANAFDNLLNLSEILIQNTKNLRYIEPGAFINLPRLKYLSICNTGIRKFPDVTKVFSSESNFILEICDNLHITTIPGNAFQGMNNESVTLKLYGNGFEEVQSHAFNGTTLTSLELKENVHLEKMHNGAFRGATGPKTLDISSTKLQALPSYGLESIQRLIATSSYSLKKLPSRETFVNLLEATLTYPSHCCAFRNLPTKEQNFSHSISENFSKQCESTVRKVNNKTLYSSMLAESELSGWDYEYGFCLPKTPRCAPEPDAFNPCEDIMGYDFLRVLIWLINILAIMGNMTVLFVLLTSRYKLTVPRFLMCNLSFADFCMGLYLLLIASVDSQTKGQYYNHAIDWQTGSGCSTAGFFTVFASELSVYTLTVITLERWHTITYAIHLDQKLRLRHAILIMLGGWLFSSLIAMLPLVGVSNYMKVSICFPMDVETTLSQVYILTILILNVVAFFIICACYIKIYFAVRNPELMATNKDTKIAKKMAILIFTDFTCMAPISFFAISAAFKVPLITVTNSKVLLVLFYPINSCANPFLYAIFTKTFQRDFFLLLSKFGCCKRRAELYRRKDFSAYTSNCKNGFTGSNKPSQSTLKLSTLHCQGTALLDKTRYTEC
Description: With reference to Table 1, exemplary disclosed compounds were evaluated against human TSH receptor and human LHCG receptor that were stably expressed in HEK 293 EM cells as previously described by Libert et al. (Biochem. Biophys. Res. Commun. 1989, 165, 1250-1255); and by Schulz et al. (Mol. Endocrinol. 1999, 13, 181-190). Cell surface expression of TSH receptor and LHCG receptor were determined via FACS analysis (Kleinau, G.; Jäschke, H.; Neumann, S.; Lättig, S.; Paschke, R.; Krause, G. J. Biol. Chem. 2004, 279, 51590-51600).
Following aspiration of the medium after incubation with compounds, cells were lysed using lysis buffer 1 of the cAMP Biotrak Enzymeimmunoassay (EIA) System (Amersham Biosciences). The cAMP content of the cell lysate was determined using the manufacturer's protocol. […] The potency (EC50) was obtained from dose response curves (0-100 μM compound) by data analysis with GraphPad Prism 4 for Windows. […] The data are presented as mean±SEM of two independent experiments, each performed in duplicate.
as §1

Row | % Max. Resp. @ TSHR in μM (human TSH receptor) [%] | % Max. Resp. @ LHCGR in μM (human LHCG receptor) [%] | SMILES | antagonistic activity at TSHR in cAMP assay (TSHR [2]) | other results
1 | – | – | CC/C=C/c1ccc(-c2nc(SC)nc3sc(C(=O)NC(C)(C)C)c(N)c23)cc1 [N-tert-butyl-5-amino-4-(4-((E)-but-1-enyl)phenyl)-2-(methylthio)thieno[2,3-d]pyrimidine-6-carboxamide] | – | inhibition of TSH receptor activation by antibodies (IgG) from Graves' disease sera (TSHR [1]): inhibit
2 | – | – | C[S+]([O-])c1nc(-c2ccc(/C=C/CS(C)(=O)=O)cc2)c2c(N)c(C(=O)NC(C)(C)C)sc2n1 (stereo not drawn) [Compound 52/2] | antagonist activity similar to compound 52; also recorded: antagonistic activity | solubility (solubility): improved solubility
3 | 23.4 ± 3.6 | 45.8 ± 5.9 | COc1cccc(-c2nc(SC)nc3sc(C(=O)NC(C)(C)C)c(N)c23)c1 [Compound 3, N-tert-butyl-5-amino-4-(3-methoxyphenyl)-2-(methylthio)thieno[2,3-d]pyrimidine-6-carboxamide, reference compound] | – | agonism at M9 (TSHR mutant M9): full agonist; partial agonism, % of TSH activity at TSHR (human TSH receptor): 23%; agonist activity at TSHR (human TSH receptor; cAMP): partial agonist; EC50 (human TSH receptor; read-out: EC50 (TSHR) in μm [95% C.I.], cAMP, HEK EM 293 cells, dose response 0-100 μM compound, ** estimated EC50, no plateau): 6.5 µM; inhibition of TSH stimulation of TSH receptor signaling (TSHR [2]): 35%; IC50 (TSHR [2]; with EC50 dose of TSH): 11 µM; in vivo efficacy for LHCG receptor (LHCG receptor): demonstrated; EC50 (human LHCG receptor; read-out: EC50 (LHCGR) in μM [95% C.I.], cAMP, HEK EM 293 cells, dose response 0-100 μM compound): 0.3 µM
4 | 1.5 ± 0.2 | 4.2 ± 2.2 | CCOC(=O)c1sc2nc(SC)nc(-c3cccc(OC)c3)c2c1N [Compound 4, ethyl-5-amino-4-(3-methoxyphenyl)-2-(methylthio)thieno[2,3-d]pyrimidine-6-carboxylate] | – | –
5 | 4.3 ± 0.4 | 25.6 ± 5.4 | COc1cccc(-c2nc(SC)nc3sc(C(=O)NCCc4ccccc4)c(N)c23)c1 [Compound 15, 5-amino-4-(3-methoxyphenyl)-2-(methylthio)-N-phenethylthieno[2,3-d]pyrimidine-6-carboxamide] | – | –
6 | – | – | C[S+]([O-])C/C=C/c1ccc(-c2nc([S+](C)[O-])nc3sc(C(=O)NC(C)(C)C)c(N)c23)cc1 (stereo not drawn) [Compound 52/3] | antagonist activity similar to compound 52; also recorded: antagonistic activity | solubility (solubility): improved solubility
7 | – | – | CSc1nc(-c2ccc(/C=C/CS(C)(=O)=O)cc2)c2c(N)c(C(=O)NC(C)(C)C)sc2n1 [Compound 52/1] | no antagonistic activity | –
8 | 2.3 ± 0.4 | 26.9 ± 4.8 | CCNC(=O)c1sc2nc(SC)nc(-c3cccc(OC)c3)c2c1N [Compound 6, 5-amino-N-(ethyl)-4-(3-methoxyphenyl)-2-(methylthio)thieno[2,3-d]pyrimidine-6-carboxamide] | – | –
9 | 4.0 ± 0.1 | 11.0 ± 1.5 | COc1cccc(-c2nc(SC)nc3sc(C(=O)NN(C)C)c(N)c23)c1 [Compound 9, 5-amino-4-(3-methoxyphenyl)-N′N′-dimethyl-2-(methylthio)thieno[2,3-d]pyrimidine-6-carbohydrazide] | – | –
